Results as given in US20050196806A1, “Prostate specific antigen oligoepitope peptide” (The Government of the USA, as represented by the Secretary, …, priority 1996, published 2005).

Tested on: PBMC from normal healthy donors expressing the HLA A2 class 1 allele
Experiment: Establishment of human T cell lines by pulsing PBMC with peptide and IL-2
Type: cell-based
Conditions: donors with T cell line / donors tested; PBMC pulsed with peptide and IL-2
Excerpt: Cytotoxic T-cells specific for PSA can be established from peripheral blood mononuclear cells (PBMC) obtained from a host immunized as discussed above. For example, PBMC can be separated by using Lymphocyte Separation Medium gradient (Organon Teknika, Durham, N.C., USA) as previously described [Boyum et al, Scand J. Clin Lab Invest 21:77-80 (1968)]. Washed PBMC are resuspended in a complete medium, for example, RPMI 1640 (GIBCO) supplemented with 10% pool human AB serum (Pel-Freeze Clinical System, Brown Dear, Wisc., USA), 2 mM glutamine, 100 U/ml penicillin and 100 μg/ml of streptomycin (GIBCO). PBMC at a concentration of about 2×10^5 cells in complete medium in a volume of, for example 100 μl are added into each well of a 96-well flat-bottom assay plate (Costar, Cambridge, Mass., USA). The antigen or peptides are added into the cultures in a final concentration of about 50 μg/ml and incubated at 37° C. in a humidified atmosphere containing 5% CO2 for 5 days. After removal of peptide containing media, the cultures are provided with fresh human IL-2 (10 U/ml) after 5 days and replenished with IL-2 containing medium every 3 days. Primary cultures are restimulated with the same peptide (50 μg/ml) on day 16. 5×10^5 irradiated (4,000 rad) autologous PBMC are added in a volume of about 50 μl complete medium as antigen-presenting cells (APC). […]

FLTPKKLQCV [PSA-1, ID No. 1]
T cell lines established from normal donors: 5/6
